*1 amine or outer side, *2 acyl side, *3 side chain or, on linkers, in order; H or OH if unused. Where a SMILES comes first, the peptide text is derived from it. [ ]: non-standard residue; d: D form. The star is where a group is joined. Pheol(OBn) = c1ccc(COC[C@H](Cc2ccccc2)N*)cc1; NH(4-phenylbutyl) = c1ccc(CCCCN*)cc1; X1 = C[C@H](N[*:1])C(=O)C(=O)[*:2]
Tests used:
recombinant human RHBDL4 = target: T1, recombinant human RHBDL4 (Homo sapiens, UniProt Q8TEB9); experiment: Inhibition of RHBDL4 proteolysis of IQ6 (FRET-based in vitro assay); format: biochemical; details: IQ6 substrate; inhibitor pre-incubated with RHBDL4 for 1 h, then reacted with IQ6 for 2 h; triplicate, average ± S.E.M.
T1 construct: The entire RHBDL4 and RHBDL4-S144A cDNAs were subcloned into the pcDNA3.1 vector; 6xHis (C, cleaved yes); made in house; host or cells: Freestyle 293-F cells (transient transfection, pcDNA3.1-HisA)
T1 sequence (Q8TEB9 1-315): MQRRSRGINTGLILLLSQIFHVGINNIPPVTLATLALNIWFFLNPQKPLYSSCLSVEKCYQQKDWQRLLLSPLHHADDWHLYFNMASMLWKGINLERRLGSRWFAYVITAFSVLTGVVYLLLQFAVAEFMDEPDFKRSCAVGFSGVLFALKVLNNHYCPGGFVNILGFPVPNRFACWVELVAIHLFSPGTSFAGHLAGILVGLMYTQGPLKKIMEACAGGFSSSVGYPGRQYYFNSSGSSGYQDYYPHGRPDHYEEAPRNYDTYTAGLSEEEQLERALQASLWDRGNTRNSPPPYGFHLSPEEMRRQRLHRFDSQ
Source text: (§1) B, schematic representation of the peptidyl-α-ketoamide scaffold with peptide sequence P5-P1 at the nonprime side and hydrophobic substituent (R) at the prime side. C, schematic representation of the peptidyl-α-ketoamide inhibitor, compound 1a/1b. D, representative inhibition curve derived from measuring rates of RHBDL4 proteolysis of the fluorescent substrate IQ6 with increasing concentrations of compound 1a. E, same as (D), except inhibition curve was derived from using increasing concentrations of compound 1b. […] Reactions were quenched with 1 keLaemmli buffer and loaded on 12% SDS-PAGE gel. Post-transfer membranes were visualized using a fluorescence Cy3 filter and by Western blotting using an α-His antibody. For (A, D, and E), all inhibitors were pre-incubated with RHBDL4 for 1 h and allowed to react with the IQ6 substrate for 2 h.
(§2) B, representative inhibition curve derived from measuring rates of RHBDL4 proteolysis of the fluorescent substrate IQ6 with increasing concentrations of compound 3. C, same as (B), except inhibition curve was derived from using increasing concentrations of compound 4. […] Reactions were quenched with 1 RLaemmli buffer and loaded on 12% SDS-PAGE gel. Post-transfer membranes were visualized using a fluorescence Cy3 filter and by Western blotting using an α-His antibody. E, saturation curve of RHBDL4 using fluorescent substrate, KSp207. For (B and C), all inhibitors were pre-incubated with RHBDL4 for 1 h and allowed to react with the IQ6 substrate for 2 h. […] I assigned them to the substrate KSp207, which is named on the x-axis and in the inset table.
The enzymatic assay was performed as previously described (Arutyunova et al., 2014, ([26])). […] The FRET-based cleavage assay was conducted in a fluorescence multiwell plate reader (SynergyMx, BioTek). Upon excitation at 320 nm, the emission intensity at 400 nm was recorded for 2 h at minimal intervals under shaking conditions and plotted using the GraphPad PRISM software. The initial velocities were defined as the slopes of the curve of the generated product as a function of time. The plots of the generated product against the corresponding substrate concentration were fitted with the Michaelis–Menten equation. Catalytic parameters were extrapolated using GraphPad PRISM. […] The samples were desalted using C18 tips (Rainin), eluted in 80% acetonitrile, and dried down in a vacuum centrifuge prior to mass spectrometry analysis.

[1] = test system: WT RHBDL4 (recombinant, purified); experiment: TAMRA-FP competition labelling on recombinant RHBDL4; format: binding, human; details: in-gel Cy3 fluorescence, compared with inactive RHBDL4-S144A control
Source text: as §1, §2

[2] = test system: RHBDL4-GFP in ER-enriched microsomes of HEK293T cells; experiment: TAMRA-FP competition label assay in ER-enriched microsomes; format: binding, human; details: 100 μM compound, 1 h preincubation at 37 °C, then 500 nM TAMRA-FP 2 h at 37 °C; n = 3
Method: Figure 6 RHBDL4 inhibition studies in ER-enriched microsomes ER-enriched microsomes were preincubated with 100 μM of compounds or DMSO vehicle control followed by the addition of 500 nM of TAMRA-FP serine hydrolase probe. RHBDL4-GFP was immunoprecipitated with an α-GFP antibody and loaded on SDS-PAGE. TAMRA-FP labeling was analyzed via Cy3 filter followed by Western blotting using α-GFP antibody, n = 3.
ER-enriched microsomes were obtained by hypotonic swelling and centrifugation from Hek293T cells 24 h after transfection. To this end, cells from a subconfluent 15-cm plate were resuspended in isolation buffer (10 mM Hepes-KOH pH 7.4, 1.5 mM MgCl2, 10 mM KCl, EDTA-free complete protease inhibitor cocktail from Roche). After 10 min incubation at 4 °C, cells were lysed by passing six times through a 27-gauge needle. Cellular debris and nuclei were discarded after centrifugation at 1000g for 5 min at 4 °C. The supernatant was spun at 100,000g for 30 min at 4 °C. The membrane pellet was resuspended in 40 μl RM buffer (50 mM Hepes-KOH pH 7.4, 250 mM sucrose, 50 mM KOAc, 2 mM Mg(OAc)2). […] TAMRA-FP-labeling was analyzed in the wet gel with a green light source (535 nm) and a Cy3 filter by detecting fluorescence emission using ImageQuant 800 Fluor CCD imager (Cytiva) followed by Western blotting using an α-GFP antibody (Roche).

IC50 (recombinant human RHBDL4) [nM] | Structure (SMILES) | competition with TAMRA-FP probe (fluorescent signal) [1] | TAMRA-FP labeling of RHBDL4-GFP [2]
54 ± 13 | CSCC[C@H](NC(=O)[C@H](CCC(N)=O)NC(C)=O)C(=O)N[C@@H](CCC(=O)O)C(=O)N[C@@H](CO)C(=O)N[C@@H](C)C(=O)C(=O)NCCCCc1ccccc1 [compound 3] (Ac-QMES[X1]-{NH(4-phenylbutyl)}) | reduction in overall fluorescent signal | reduced
 | CSCC[C@H](NC(=O)[C@H](CCC(N)=O)NC(C)=O)C(=O)N[C@@H](CCC(=O)O)C(=O)N[C@@H](CO)C(=O)N[C@@H](C)C(=O)C(=O)N[C@H](COCc1ccccc1)Cc1ccccc1 [compound 4] (Ac-QMES[X1]-{Pheol(OBn)}) | reduction in overall fluorescent signal | reduced
